Experimental data as given in the supplement of paper PMC12076712.

What was measured:
Assay in all cases: pIC50, kinobeads binding competition
[1] = biological target: UniProt P21127
Procedure, shortened: (§1)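 Live Jurkat cells were treated with nine compound concentrations (top 30 μM, 1:4 steps) or DMSO for 60 min at 37 °C before lysis. Alternatively, Jurkat lysate or a 1:1:1:1 HEK293/K-562/HepG2/placenta lysate mix was incubated with nine concentrations (top 30 μM, 1:5 steps) for 60 min at 4 °C. Kinobeads-bound proteins were digested and quantified by TMT10 LC-MS/MS. pIC50 came from logistic dose-response fits (R drc package) of fold changes versus DMSO, in biological duplicates.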

[2] = biological target: UniProt Q14004
Procedure, shortened: as §1

[3] = biological target: PAK4 (UniProt O96013)
Procedure, shortened: as §1

[4] = biological target: UniProt Q04912; details: cell material: Lysate mix
Procedure, shortened: as §1

[5] = biological target: Fes (UniProt P07332); details: cell material: Lysate mix
Procedure, shortened: as §1

[6] = biological target: UniProt Q16512
Procedure, shortened: as §1

[7] = biological target: UniProt O95747
Procedure, shortened: as §1

[8] = biological target: T1, MAP3K15 (UniProt Q6ZN16); details: cell material: Lysate mix
T1 sequence (whole entry): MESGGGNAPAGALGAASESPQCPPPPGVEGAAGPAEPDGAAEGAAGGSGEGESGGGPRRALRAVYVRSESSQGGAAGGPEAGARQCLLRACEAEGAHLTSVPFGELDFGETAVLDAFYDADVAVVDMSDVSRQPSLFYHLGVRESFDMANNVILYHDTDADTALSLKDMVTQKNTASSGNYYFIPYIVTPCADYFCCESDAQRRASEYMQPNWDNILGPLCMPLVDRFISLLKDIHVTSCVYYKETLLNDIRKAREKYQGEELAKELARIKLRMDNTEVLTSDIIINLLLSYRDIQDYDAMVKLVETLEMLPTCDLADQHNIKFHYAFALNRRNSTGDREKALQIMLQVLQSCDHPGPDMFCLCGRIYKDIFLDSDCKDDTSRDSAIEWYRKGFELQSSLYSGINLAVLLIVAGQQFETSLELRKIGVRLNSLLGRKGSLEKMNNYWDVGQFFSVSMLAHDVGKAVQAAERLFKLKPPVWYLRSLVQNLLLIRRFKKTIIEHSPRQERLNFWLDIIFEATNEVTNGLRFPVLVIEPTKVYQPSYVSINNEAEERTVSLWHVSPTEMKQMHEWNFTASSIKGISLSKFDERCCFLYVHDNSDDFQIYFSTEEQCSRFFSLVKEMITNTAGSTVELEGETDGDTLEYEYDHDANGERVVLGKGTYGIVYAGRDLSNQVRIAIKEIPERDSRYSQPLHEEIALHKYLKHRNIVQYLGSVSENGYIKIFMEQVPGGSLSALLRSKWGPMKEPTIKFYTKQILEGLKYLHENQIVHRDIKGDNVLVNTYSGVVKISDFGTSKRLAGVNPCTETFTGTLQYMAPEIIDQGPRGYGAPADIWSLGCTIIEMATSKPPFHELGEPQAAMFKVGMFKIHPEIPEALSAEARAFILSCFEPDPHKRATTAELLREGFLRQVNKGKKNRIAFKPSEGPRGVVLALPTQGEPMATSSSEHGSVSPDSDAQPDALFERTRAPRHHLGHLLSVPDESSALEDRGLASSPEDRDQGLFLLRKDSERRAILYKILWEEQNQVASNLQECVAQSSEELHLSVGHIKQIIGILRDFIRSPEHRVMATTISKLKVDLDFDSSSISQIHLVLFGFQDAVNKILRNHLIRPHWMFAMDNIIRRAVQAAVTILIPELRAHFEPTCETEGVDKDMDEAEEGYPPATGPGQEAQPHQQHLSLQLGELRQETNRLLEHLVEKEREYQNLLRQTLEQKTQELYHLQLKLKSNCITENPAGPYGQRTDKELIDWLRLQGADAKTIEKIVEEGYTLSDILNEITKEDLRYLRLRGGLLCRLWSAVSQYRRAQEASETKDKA
Procedure, shortened: as §1

[9] = biological target: T2, MASTL (UniProt Q96GX5)
T2 sequence (whole entry): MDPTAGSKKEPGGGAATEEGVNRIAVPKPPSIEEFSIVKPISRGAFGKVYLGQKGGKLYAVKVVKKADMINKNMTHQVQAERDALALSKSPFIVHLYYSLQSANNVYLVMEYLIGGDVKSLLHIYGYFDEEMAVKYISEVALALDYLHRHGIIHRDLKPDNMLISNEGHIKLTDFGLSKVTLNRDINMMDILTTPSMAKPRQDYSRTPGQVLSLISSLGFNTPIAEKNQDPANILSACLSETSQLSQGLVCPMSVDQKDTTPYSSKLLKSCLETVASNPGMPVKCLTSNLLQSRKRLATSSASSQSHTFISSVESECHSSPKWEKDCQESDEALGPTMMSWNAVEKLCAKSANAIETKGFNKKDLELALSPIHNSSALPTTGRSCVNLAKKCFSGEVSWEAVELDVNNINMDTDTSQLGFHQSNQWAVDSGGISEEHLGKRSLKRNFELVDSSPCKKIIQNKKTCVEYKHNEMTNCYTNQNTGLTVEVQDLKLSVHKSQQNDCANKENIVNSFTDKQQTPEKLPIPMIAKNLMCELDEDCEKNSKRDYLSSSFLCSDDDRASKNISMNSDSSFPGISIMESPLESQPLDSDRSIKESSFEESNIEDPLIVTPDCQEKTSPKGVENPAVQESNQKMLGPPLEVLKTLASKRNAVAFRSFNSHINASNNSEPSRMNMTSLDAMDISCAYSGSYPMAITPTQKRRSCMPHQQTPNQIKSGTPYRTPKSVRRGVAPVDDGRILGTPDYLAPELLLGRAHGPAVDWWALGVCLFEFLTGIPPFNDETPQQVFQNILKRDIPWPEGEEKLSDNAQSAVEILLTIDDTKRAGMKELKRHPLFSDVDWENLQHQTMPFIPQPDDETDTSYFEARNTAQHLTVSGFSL
Procedure, shortened: as §1

[10] = biological target: PAK2 (UniProt Q13177)
Procedure, shortened: as §1

[11] = biological target: SRPK1 (UniProt Q96SB4)
Procedure, shortened: as §1

Sequence of PAK4 (O96013 whole entry, looked up): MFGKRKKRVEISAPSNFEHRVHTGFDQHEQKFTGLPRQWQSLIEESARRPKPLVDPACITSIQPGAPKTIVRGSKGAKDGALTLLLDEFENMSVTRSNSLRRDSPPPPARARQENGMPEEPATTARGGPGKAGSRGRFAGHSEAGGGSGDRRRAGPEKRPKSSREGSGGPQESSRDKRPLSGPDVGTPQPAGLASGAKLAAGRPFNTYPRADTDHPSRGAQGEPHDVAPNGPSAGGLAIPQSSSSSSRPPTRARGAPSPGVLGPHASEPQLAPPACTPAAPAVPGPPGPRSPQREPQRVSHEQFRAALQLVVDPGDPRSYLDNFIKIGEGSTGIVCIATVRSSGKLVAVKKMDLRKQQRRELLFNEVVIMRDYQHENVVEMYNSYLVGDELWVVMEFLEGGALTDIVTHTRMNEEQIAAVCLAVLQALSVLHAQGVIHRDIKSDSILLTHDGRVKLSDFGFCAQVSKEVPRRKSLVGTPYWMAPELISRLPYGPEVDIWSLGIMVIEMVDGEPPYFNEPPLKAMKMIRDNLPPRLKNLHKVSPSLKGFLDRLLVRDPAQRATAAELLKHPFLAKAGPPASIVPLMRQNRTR
Sequence of Fes (P07332 whole entry): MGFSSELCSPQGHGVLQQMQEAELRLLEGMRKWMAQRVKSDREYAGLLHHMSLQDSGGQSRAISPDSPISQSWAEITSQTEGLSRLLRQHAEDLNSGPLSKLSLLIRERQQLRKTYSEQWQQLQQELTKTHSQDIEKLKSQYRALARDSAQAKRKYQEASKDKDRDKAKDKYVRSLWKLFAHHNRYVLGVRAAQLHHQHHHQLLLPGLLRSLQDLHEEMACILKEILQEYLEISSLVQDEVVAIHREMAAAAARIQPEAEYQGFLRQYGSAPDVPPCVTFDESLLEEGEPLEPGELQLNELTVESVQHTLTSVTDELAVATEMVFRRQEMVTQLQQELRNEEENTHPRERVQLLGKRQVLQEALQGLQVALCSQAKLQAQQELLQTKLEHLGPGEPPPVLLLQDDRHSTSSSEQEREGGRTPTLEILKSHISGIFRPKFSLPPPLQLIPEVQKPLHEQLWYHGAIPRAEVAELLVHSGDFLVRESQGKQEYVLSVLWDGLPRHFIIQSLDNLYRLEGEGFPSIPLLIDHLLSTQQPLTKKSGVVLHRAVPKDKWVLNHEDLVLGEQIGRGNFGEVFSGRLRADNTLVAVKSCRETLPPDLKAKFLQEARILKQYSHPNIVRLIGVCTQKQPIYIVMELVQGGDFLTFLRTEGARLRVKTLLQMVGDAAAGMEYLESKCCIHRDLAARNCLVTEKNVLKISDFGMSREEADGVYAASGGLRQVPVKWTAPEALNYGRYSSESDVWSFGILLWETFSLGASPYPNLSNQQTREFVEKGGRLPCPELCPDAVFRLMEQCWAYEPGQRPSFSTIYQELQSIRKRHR
Sequence of UniProt Q16512 (Q16512 whole entry, looked up): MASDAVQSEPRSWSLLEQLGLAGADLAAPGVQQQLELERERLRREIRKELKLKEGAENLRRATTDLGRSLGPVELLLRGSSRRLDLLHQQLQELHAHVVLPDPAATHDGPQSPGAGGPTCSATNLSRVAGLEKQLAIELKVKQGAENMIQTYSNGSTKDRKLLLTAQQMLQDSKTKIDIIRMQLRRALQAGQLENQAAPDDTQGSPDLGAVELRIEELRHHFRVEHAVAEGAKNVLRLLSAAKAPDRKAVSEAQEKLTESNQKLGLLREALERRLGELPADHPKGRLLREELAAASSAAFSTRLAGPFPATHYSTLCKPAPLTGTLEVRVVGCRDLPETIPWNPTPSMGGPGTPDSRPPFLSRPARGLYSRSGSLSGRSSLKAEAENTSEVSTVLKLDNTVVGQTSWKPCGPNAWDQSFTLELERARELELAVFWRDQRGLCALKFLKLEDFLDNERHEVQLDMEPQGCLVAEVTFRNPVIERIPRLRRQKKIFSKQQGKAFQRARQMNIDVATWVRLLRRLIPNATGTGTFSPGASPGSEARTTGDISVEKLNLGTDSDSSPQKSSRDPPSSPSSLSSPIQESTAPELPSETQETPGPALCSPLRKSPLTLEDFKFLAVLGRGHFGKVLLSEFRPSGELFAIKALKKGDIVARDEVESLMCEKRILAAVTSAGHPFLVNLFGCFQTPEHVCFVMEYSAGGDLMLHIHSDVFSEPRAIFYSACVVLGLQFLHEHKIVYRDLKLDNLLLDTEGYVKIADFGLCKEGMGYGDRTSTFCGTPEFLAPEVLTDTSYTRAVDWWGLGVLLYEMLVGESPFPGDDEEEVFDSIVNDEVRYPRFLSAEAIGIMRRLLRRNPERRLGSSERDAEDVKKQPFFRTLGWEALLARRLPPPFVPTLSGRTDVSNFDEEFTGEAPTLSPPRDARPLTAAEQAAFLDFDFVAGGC
Sequence of UniProt Q04912 (Q04912 whole entry): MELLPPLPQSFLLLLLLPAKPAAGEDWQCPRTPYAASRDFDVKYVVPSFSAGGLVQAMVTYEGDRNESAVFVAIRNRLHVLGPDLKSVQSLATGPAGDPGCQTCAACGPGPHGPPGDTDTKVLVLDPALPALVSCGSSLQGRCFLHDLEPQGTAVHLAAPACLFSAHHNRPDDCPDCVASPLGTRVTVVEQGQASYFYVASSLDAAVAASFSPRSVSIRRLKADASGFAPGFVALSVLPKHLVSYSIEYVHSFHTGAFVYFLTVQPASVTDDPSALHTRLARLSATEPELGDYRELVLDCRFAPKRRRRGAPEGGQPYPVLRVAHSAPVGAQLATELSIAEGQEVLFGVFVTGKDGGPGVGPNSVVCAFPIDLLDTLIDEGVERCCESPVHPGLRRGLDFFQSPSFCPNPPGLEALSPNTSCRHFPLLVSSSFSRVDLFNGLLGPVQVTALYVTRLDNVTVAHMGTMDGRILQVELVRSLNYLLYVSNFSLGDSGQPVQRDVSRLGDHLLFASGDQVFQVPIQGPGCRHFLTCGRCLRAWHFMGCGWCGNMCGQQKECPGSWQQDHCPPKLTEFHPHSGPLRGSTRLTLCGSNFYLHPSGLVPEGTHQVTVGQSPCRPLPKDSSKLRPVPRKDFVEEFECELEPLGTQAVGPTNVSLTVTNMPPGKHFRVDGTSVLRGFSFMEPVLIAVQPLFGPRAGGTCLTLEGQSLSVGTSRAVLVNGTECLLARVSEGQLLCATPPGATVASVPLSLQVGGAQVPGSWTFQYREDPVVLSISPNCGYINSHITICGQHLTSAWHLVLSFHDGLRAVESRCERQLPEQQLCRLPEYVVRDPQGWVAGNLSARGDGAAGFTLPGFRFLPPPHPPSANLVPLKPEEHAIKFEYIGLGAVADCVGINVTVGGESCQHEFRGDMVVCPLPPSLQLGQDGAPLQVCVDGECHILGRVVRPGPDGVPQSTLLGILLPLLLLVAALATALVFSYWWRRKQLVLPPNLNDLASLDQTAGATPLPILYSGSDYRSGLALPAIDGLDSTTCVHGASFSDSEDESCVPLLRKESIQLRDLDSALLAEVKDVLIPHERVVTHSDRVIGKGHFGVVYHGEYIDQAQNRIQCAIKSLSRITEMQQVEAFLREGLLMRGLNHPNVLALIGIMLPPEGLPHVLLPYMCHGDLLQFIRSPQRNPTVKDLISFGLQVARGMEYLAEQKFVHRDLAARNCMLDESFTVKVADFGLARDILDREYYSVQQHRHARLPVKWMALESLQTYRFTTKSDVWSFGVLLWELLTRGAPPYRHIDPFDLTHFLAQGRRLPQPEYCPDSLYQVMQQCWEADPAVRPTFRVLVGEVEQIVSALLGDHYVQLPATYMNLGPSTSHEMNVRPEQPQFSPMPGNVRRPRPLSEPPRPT
Sequence of UniProt O95747 (O95747 whole entry, looked up): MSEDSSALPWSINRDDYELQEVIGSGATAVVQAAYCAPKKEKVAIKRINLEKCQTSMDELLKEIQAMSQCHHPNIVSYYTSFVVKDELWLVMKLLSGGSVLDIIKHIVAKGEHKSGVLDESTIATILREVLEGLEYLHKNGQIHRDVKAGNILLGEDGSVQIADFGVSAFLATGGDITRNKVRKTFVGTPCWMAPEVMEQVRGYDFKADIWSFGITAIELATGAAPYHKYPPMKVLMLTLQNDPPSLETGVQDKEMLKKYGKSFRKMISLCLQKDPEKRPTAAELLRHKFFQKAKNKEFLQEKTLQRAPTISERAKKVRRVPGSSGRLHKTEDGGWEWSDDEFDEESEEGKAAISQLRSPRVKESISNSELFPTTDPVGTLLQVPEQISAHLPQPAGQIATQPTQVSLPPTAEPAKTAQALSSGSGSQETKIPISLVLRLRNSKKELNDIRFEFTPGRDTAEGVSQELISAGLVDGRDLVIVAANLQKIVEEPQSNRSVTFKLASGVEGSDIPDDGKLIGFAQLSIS
Sequence of SRPK1 (Q96SB4 whole entry): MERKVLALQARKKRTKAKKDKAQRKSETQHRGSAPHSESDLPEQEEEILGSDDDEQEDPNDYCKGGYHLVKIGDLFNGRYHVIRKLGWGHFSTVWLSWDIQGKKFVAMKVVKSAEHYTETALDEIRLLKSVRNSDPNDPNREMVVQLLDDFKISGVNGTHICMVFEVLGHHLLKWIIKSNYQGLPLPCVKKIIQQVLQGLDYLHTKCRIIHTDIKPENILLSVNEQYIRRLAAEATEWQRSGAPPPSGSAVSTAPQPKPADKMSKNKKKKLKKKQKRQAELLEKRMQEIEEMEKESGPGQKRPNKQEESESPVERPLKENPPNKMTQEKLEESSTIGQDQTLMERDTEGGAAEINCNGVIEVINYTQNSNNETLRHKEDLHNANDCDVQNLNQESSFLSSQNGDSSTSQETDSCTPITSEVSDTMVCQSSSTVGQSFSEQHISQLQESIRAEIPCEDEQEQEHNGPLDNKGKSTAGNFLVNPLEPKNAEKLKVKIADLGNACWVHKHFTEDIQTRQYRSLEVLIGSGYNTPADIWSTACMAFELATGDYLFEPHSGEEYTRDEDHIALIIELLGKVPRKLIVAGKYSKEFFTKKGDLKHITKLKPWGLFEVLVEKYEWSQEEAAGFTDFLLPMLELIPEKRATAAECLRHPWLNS

In the case of `CCNC(=O)c1cc(Nc2cc(C)[nH]n2)nc(N2CCN(Cc3ccc(S(=O)(=O)F)cc3)CC2)n1`, the pIC50 ([1]; cell material: Lysate mix) is reported as under 4.52, the pIC50 ([2]; cell material: Lysate mix) is reported as under 4.52 and the pIC50 ([3]; cell material: Lysate mix) is reported as 4.7. It also gave a pIC50 [4] of 4.54, a pIC50 [5] of under 4.52 and a pIC50 ([6]; cell material: Lysate mix) of under 4.52. The pIC50 ([7]; cell material: Lysate mix) was under 4.52 and the pIC50 [8] was 4.94.

In the case of `CCNC(=O)c1cc(Nc2cc(C3CC3)[nH]n2)nc(N2CCN(Cc3ccc(S(=O)(=O)F)cc3)CC2)n1`, the pIC50 ([1]; cell material: Lysate mix) is reported as under 4.52, the pIC50 ([3]; cell material: Lysate mix) is reported as 5.27 and the pIC50 [4] is reported as under 4.52. It also gave a pIC50 ([9]; cell material: Lysate mix) of 6.85, a pIC50 ([7]; cell material: Lysate mix) of 5.24 and a pIC50 [8] of under 4.52.

Molecule `Cc1cc(Nc2cc(C(=O)NCCNC(=O)OC3CC/C=C/CCC3)nc(N3CCN(Cc4ccc(S(=O)(=O)F)cc4)CC3)n2)n[nH]1` (centres undefined) has a pIC50 ([1]; cell material: Lysate mix) of under 4.52, a pIC50 ([2]; cell material: Lysate mix) of under 4.52 and a pIC50 ([3]; cell material: Lysate mix) of under 4.52. For the same molecule, the pIC50 [4] was under 4.52, the pIC50 ([10]; cell material: Lysate mix) was under 4.52 and the pIC50 ([9]; cell material: Lysate mix) was under 4.52. It also gave a pIC50 [5] of under 4.52, a pIC50 ([6]; cell material: Lysate mix) of under 4.52 and a pIC50 ([7]; cell material: Lysate mix) of under 4.52. For the same molecule, the pIC50 [8] was under 4.52 and the pIC50 ([11]; cell material: Lysate mix) was under 4.52.

With `C#CCNC(=O)c1cc(Nc2cc(C3CC3)[nH]n2)nc(N2CCN(Cc3ccc(S(=O)(=O)F)cc3)CC2)n1` the pIC50 ([1]; cell material: Jurkat cells) was under 4.52, the pIC50 ([1]; cell material: Jurkat lysate) was under 4.52 and the pIC50 ([1]; cell material: Lysate mix) was under 4.52. It also gave a pIC50 ([2]; cell material: Jurkat cells) of 6.19, a pIC50 ([2]; cell material: Jurkat lysate) of under 4.52 and a pIC50 ([3]; cell material: Jurkat cells) of 5.78. It also gave a pIC50 ([3]; cell material: Jurkat lysate) of 5.19, a pIC50 ([3]; cell material: Lysate mix) of 5.58 and a pIC50 ([10]; cell material: Jurkat cells) of under 4.52. For the same molecule, the pIC50 ([10]; cell material: Jurkat lysate) was under 4.52, the pIC50 ([9]; cell material: Jurkat cells) was 6.15 and the pIC50 ([9]; cell material: Jurkat lysate) was 6.03. The pIC50 ([9]; cell material: Lysate mix) was 6.74, the pIC50 [5] was 5.24 and the pIC50 ([6]; cell material: Jurkat cells) was 5.36. It also gave a pIC50 ([6]; cell material: Jurkat lysate) of under 4.52, a pIC50 ([6]; cell material: Lysate mix) of under 4.52 and a pIC50 ([7]; cell material: Jurkat cells) of 6.16. For the same molecule, the pIC50 ([7]; cell material: Jurkat lysate) was 5.4, the pIC50 ([7]; cell material: Lysate mix) was 5.54 and the pIC50 [8] was under 4.52. For the same molecule, the pIC50 ([11]; cell material: Jurkat cells) was under 4.52.

`C#CCNC(=O)c1cc(Nc2cc(C)[nH]n2)nc(N2CCN(Cc3ccc(S(=O)(=O)F)cc3)CC2)n1` gave a pIC50 ([1]; cell material: Lysate mix) of under 4.52, a pIC50 ([2]; cell material: Lysate mix) of under 4.52 and a pIC50 ([3]; cell material: Lysate mix) of 4.8. The pIC50 [4] was under 4.52, the pIC50 [5] was under 4.52 and the pIC50 ([6]; cell material: Lysate mix) was under 4.52. It also gave a pIC50 [8] of 4.92.

`O=C(NCCNC(=O)c1cc(Nc2cc(C3CC3)[nH]n2)nc(N2CCN(Cc3ccc(S(=O)(=O)F)cc3)CC2)n1)OC1CC/C=C/CCC1` (centres undefined) gave a pIC50 ([1]; cell material: Jurkat cells) of under 4.52, a pIC50 ([1]; cell material: Jurkat lysate) of under 4.52 and a pIC50 ([1]; cell material: Lysate mix) of under 4.52. The pIC50 ([2]; cell material: Jurkat cells) was 6.02, the pIC50 ([2]; cell material: Jurkat lysate) was under 4.52 and the pIC50 ([2]; cell material: Lysate mix) was under 4.52. The pIC50 ([3]; cell material: Jurkat cells) was 6.17, the pIC50 ([3]; cell material: Jurkat lysate) was under 4.52 and the pIC50 ([3]; cell material: Lysate mix) was under 4.52. It also gave a pIC50 [4] of under 4.52, a pIC50 ([10]; cell material: Jurkat cells) of under 4.52 and a pIC50 ([9]; cell material: Jurkat cells) of 6.1. It also gave a pIC50 [5] of under 4.52, a pIC50 ([6]; cell material: Jurkat lysate) of under 4.52 and a pIC50 ([6]; cell material: Lysate mix) of under 4.52. It also gave a pIC50 ([7]; cell material: Jurkat cells) of 5.3, a pIC50 ([7]; cell material: Jurkat lysate) of under 4.52 and a pIC50 ([7]; cell material: Lysate mix) of under 4.52. It also gave a pIC50 [8] of under 4.52 and a pIC50 ([11]; cell material: Jurkat cells) of under 4.52.
